The subject of one assay is adiponectin. The assay can be described thus: Clinical study of sodium propionate, adiponectin levels. It is filed as in vivo, human. To be noted: 4 weeks after administration had been terminated, FIG. 6 column C. The text has this:
FIG. 6 is a graph showing the effect of administration of sodium propionate in a clinical study in ten patients on adiponectin levels.

Assay [1] deals with experimental autoimmune encephalomyelitis (EAE). The assay can be described thus: Mouse EAE model, daily clinical assessment on 5-point scale (SEM). It counts as in vivo. As for the experimental part:
(§1) Mice kept under standardized conditions were fed on a normal diet enriched with long-chain fatty acids (30.9% lauric acid) and additionally with 200 μl of propionate daily administered orally. The propionate was given either at the time of disease induction (DI) or at the onset of the disease (OD).
(§2) For the induction of EAE the mice were anesthetized and administered two subcutaneous injections of a 50 μl emulsion applied to the left and right tail basis and comprising a total of 200 μg MOG35-55 (myelin oligodendrocyte glycoprotein) and 200 μg Freund's adjuvant (CFA) with 4 mg/ml of M. tuberculosis. Pertussistoxin ([…]) was given intraperitoneally on day 0 and 2 after the induction. The clinical assessment took place on a daily basis using a 5-point scale (SEM). The assessment was as follows: • 0=normal • 1=Tail paralysis impairing raising • 2=Gait ataxia • 3=Paraparesis of hind legs • 4=Tetraparesis • 5=Death Mice showing SEM 4 or 5 were excluded.

The next assay concerns Foxp3. Kind of assay: Gene expression profiling of signature cytokines in EAE mice. It counts as in vivo, mouse. The settings on record: EAE mice fed propionic acid. The text has this: (§3) Moreover, the aliphatic chain length of the carboxylic acids also affects the […] autoimmunity as well as the regulatory response of Treg in an in vivo mouse model.
The subject of a further assay is TGFβ. The description is as above. It is filed as in vivo, mouse. The settings on record: EAE mice fed propionic acid.
Description: as §3

Another assay relates to IL-10. The assay is described as above. It counts as in vivo, mouse. The settings on record: EAE mice fed propionic acid.
Description: as §3

The test system of assay [2] is experimental autoimmune encephalomyelitis (EAE). The assay can be described thus: Mouse EAE model: relative axonal density, demyelination of white matter, CD3+ cells. It counts as in vivo. To be noted: versus control group, FIG. 3. How it is done: FIG. 3: is a graph showing the effect of propionic acid diet initiated at the time of disease induction (DI) or at the time of onset of symptoms (OD) compared to a diet control group on relative axonal density, demyelination in the white matter, and CD3+ cells in the mouse EAE model.
as §1, §2
The influence of propionic acid on the relative axonal density, the demyelination of the white matter, and the number of CD3+-cells is shown in FIG. 3.

The subject of another assay is CD4+CD25+ Foxp3 cells. The assay can be described thus: Regulatory T cell levels in mouse EAE model. It counts as in vivo. The settings on record: for proliferation and amount of regulatory T cells: in the intestines and blood. As for the experimental part:
FIG. 4: is a graph showing the effect of propionic acid diet initiated at the time of disease induction (DI) compared to a control group on levels of CD4+CD25+ Foxp3 cells in mouse EAE model.
FIG. 5 is a graph showing the effect of lauric acid diet (250 μM and 500 μM) initiated at the time of disease induction (DI) compared to a control group on levels of CD4+CD25+ Foxp3 cells in mouse EAE model.
as §1, §2

The subject of a further assay is intestinal microbiota. Kind of assay: Composition of the intestinal microbiome. To be noted: for effect on normal intestinal microbiota / number of bacteria degrading propionate and butyrate: intestinal microbiome. It counts as in vivo, mice. The text has this:
The inventive acids, in particular propionic acid and butyric acid have an influence on the bowel physiology and the microbiome present there. In this way, they have an impact on the composition of the microbiome.

Another assay has as its system TH1 and TH17 cells. The assay can be described thus: Th1/Th17 cells in small intestine and central nervous system, EAE model. It is filed as in vivo. The settings on record: mouse EAE, lauric acid enriched diet.
Description: as §3

Structures are written as SMILES. Entries after “also recorded” stand apart in the source; their conditions may differ.

For the molecule `CCC(=O)[O-].[Na+]` [sodium propionate], in the assay with adiponectin, the “duration of the adiponectin effect” value is on record as “lasts longer than the administration duration”.

Turning to `CCC(=O)O` [propionic acid], the “disease course versus control group” value in [1] (propionic acid given on the day of onset of disease (OD), FIG. 2) was “significantly less favorable disease course”. In addition, the “disease course versus control group” value in assay [1] (propionic acid given prophylactically (at disease induction, DI)) is “significant improvement”. Further, the Foxp3 gene expression entry with Foxp3 is “increased values; also recorded: significant increase”. The TGFβ gene expression result in the assay on TGFβ was “increased values; also recorded: significant increase”. In addition, the IL-10 gene expression entry in the assay on IL-10 was “increased values; also recorded: significant increase”. For the same molecule, in [2], the “demyelination of the white matter” value was “significant improvement”, the “number of CD3+ cells” value is “significant improvement” and the relative axonal density entry is listed as “significant improvement”. Besides, the “proliferation and amount of regulatory T cells” value in the assay with CD4+CD25+ Foxp3 cells is given as “positive effect”. Also, in the assay with CD4+CD25+ Foxp3 cells (mouse EAE, propionic acid at disease induction (DI), versus control group, FIG. 4), the “number of regulatory T cells (CD4+CD25+ Foxp3+ Treg)” value is on record as “significant increase”. Besides, in the assay on intestinal microbiota, the “effect on normal intestinal microbiota” value is recorded as “only slightly affected”; the “number of bacteria degrading propionate and butyrate” value is “increases significantly”.

With `CCCC(=O)O` [butyric acid], in the assay with CD4+CD25+ Foxp3 cells, the “proliferation and amount of regulatory T cells” value is recorded as “positive effect”. In the assay on intestinal microbiota, the “effect on normal intestinal microbiota” value is on record as “only slightly affected”; the “number of bacteria degrading propionate and butyrate” value is listed as “increases significantly”.

Regarding `CCCCCCCCCCCC(=O)O` [lauric acid, reference compound], in the assay on TH1 and TH17 cells, the “TH1 and TH17 cells in the small intestine” value is listed as “significant reduction”; the “Th1/Th17 in the central nervous system” value is “accumulation”. Further, in the assay with CD4+CD25+ Foxp3 cells (lauric acid 250 μM and 500 μM, FIG. 5), the “concentration dependence of the percentage reduction of CD4+CD25+ Foxp3 cells” value was “dependent on concentration”. Also, the “CD4+CD25+ Foxp3 cells” value with CD4+CD25+ Foxp3 cells (lauric acid 250 μM and 500 μM, versus control value, FIG. 5) is listed as “reduction”. Moreover, the “number of Provotellaceae and some families of Phylum Bacteroidetes” value with intestinal microbiota (mice) was “reduce significantly”.

These data come from patent publication US11865091B2, “Supporting immunomodulatory agent” (Flexopharm Brain GMBH & Co. KG, priority 2014, dated 2024).
